Key:
Assay type in all cases: in vivo
[1] = system: Kanzawa Spider Mite (Tetranychus kanzawai); experiment: Kanzawa spider mite, sprayed potted cotton plants (II.7.a); conditions: 300 ppm; population reduction assessed after 24, 72 and 120 hours; in comparison with untreated controls
Procedure: The active compounds were dissolved at the desired concentration in a mixture of 1:1 (vol:vol) acetone:water. The test solutions were prepared at the day of use.
Potted cotton plants colonized with approximately 50 mites of various stages were sprayed after the pest population had been recorded. Population reductions (or increases) after 24, 72 and 120 hours were assessed.

[2] = system: Diamond Back Moth (Plutella xylostella); experiment: Diamond back moth, larvae sprayed with test solution (II.1.a); conditions: 500 ppm; third-instar larvae sprayed; mortality recorded 24, 72 and 120 hours after treatment; in comparison with untreated controls
Procedure: The active compound was dissolved at the desired concentration in a mixture of 1:1 (vol:vol) acetone:water. The test solution was prepared at the day of use.
Ten, third-istar larvae are sprayed with 1 ml test solution and introduced to untreated leaves held in a petri dish that was lined with moist filter paper. Mortality was recorded 24, 72 and 120 hours after treatment.

[3] = system: Cowpea Aphid (Aphis craccivora); experiment: Activity against cowpea aphid, sprayed potted cowpea plants (II.3); conditions: population reduction assessed after 72 hours, in comparison with untreated controls
Procedure: The active compounds were formulated in 50:50 (vol:vol) acetone:water. The test solution was prepared at the day of use.
Potted cowpea plants colonized with 100-150 aphids of various stages were sprayed after the pest population had been recorded. Population reduction was assessed after 72 hours.

Structure (SMILES)	mortality [1]	other results
Cc1cc(F)c(-n2cnc3ccccc3c2=O)cc1SCC(F)(F)F [Compound I-1, 2-(2,2,2-trifluoroethylsufanyl)-4-(4-oxo-quinazolin-3-yl)-5-fluoro-toluol]	100%	–
Cc1cc(F)c(-n2cnc3ccccc3c2=O)cc1[S+]([O-])CC(F)(F)F (stereo not shown) [Compound I-2, 2-(2,2,2-trifluoroethylsufinyl)-4-(4-oxo-quinazolin-3-yl)-5-fluoro-toluol]	100%	–
Cc1cc(F)c(-n2c(C)nc3ccccc3c2=O)cc1SCC(F)(F)F [Compound I-3, 2-(2,2,2-trifluoroethylsufanyl)-4-(2-methyl-4-oxo-quinazolin-3-yl)-5-fluoro-toluol]	–	mortality [2]: 100%
O=c1c2ccccc2ncn1-c1ccnc(SCC(F)(F)F)n1 [Compound I-6, 3-[2-(2,2,2-Trifluoro-ethylsulfanyl)-pyrimidin-4-yl]-3H-quinazolin-4-one]	–	mortality at 300 ppm [3]: ≥ 50%

From patent US8765774B2, “3-arylquinazolin-4-one compounds for combating invertebrate pests” (BASF SE, priority 2009, dated 2014)
